Source: PubChem BioAssay (NCI)
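Each compound was tested at five concentrations against cells in 96-well plates for 48 hours. Abbreviation: GI50, concentration required for 50% inhibition of growth. Definition used: TGI = concentration required for complete inhibition of growth.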

Tests used:
Assay in all cases: inhibition of tumour cell growth, NCI panel, 48 h
HT29 colon = tested on: HT29 colon
KM20L2 colon = tested on: KM20L2 colon
SF-295 CNS = tested on: SF-295 CNS
SN12C renal = tested on: SN12C renal
SW-620 colon = tested on: SW-620 colon
A498 renal = tested on: A498 renal
HCT-15 colon = tested on: HCT-15 colon
NCI-H226 lung = tested on: NCI-H226 lung
SK-MEL-2 melanoma = tested on: SK-MEL-2 melanoma
SNB-78 CNS = tested on: SNB-78 CNS

In the case of `N=c1nnc(=O)c2c(s1)-n1ncc(C(=O)O)c1NN2`, the TGI (HT29 colon) is reported as over 100 µM, the TGI (KM20L2 colon) is reported as over 100 µM and the TGI (SF-295 CNS) is reported as over 100 µM. For the same molecule, the TGI (SN12C renal) was over 100 µM and the TGI (SW-620 colon) was over 100 µM.

With `CCC(=O)C(C)C1=Nc2nnc(CCCCCCCc3nnc4n3C(=O)C(C(C)C(=O)CC)=N4)n2C1=O` (centres undefined) the TGI (A498 renal) was over 100 µM, the TGI (HCT-15 colon) was over 100 µM and the TGI (HT29 colon) was over 100 µM. It also gave a TGI (KM20L2 colon) of over 100 µM, a TGI (NCI-H226 lung) of over 100 µM and a TGI (SF-295 CNS) of over 100 µM. It also gave a TGI (SN12C renal) of over 100 µM and a TGI (SW-620 colon) of over 100 µM.

Work on `C(=N\OCc1ccccc1)/c1ncccc1C1OCCO1` yielded a TGI (HCT-15 colon) of over 100 µM, a TGI (HT29 colon) of over 100 µM and a TGI (KM20L2 colon) of over 100 µM. It also gave a TGI (SF-295 CNS) of over 100 µM, a TGI (SK-MEL-2 melanoma) of over 100 µM and a TGI (SN12C renal) of over 100 µM. It also gave a TGI (SNB-78 CNS) of over 100 µM and a TGI (SW-620 colon) of over 100 µM.

Molecule `COc1ccc(C(N)=O)cc1N=NN(C)C` has a TGI (A498 renal) of over 100 µM, a TGI (HCT-15 colon) of over 100 µM and a TGI (HT29 colon) of over 100 µM. For the same molecule, the TGI (KM20L2 colon) was over 100 µM, the TGI (NCI-H226 lung) was over 100 µM and the TGI (SF-295 CNS) was over 100 µM. The TGI (SK-MEL-2 melanoma) was over 100 µM, the TGI (SN12C renal) was over 100 µM and the TGI (SW-620 colon) was over 100 µM.

Molecule `COc1cccc(C(=O)N2CCc3ccccc32)c1OC` has a TGI (HCT-15 colon) of 61.9 µM, a TGI (HT29 colon) of over 100 µM and a TGI (KM20L2 colon) of over 100 µM. It also gave a TGI (NCI-H226 lung) of over 100 µM, a TGI (SF-295 CNS) of over 100 µM and a TGI (SK-MEL-2 melanoma) of over 100 µM. For the same molecule, the TGI (SN12C renal) was over 100 µM, the TGI (SNB-78 CNS) was over 100 µM and the TGI (SW-620 colon) was over 100 µM.

`Cc1c(C(=O)NCCO)[n+](=O)c2cc(Cl)ccc2n1[O-]` showed a TGI (A498 renal) of over 100 µM, a TGI (HCT-15 colon) of over 100 µM and a TGI (HT29 colon) of over 100 µM. The TGI (KM20L2 colon) was over 100 µM, the TGI (SF-295 CNS) was over 100 µM and the TGI (SN12C renal) was over 100 µM. For the same molecule, the TGI (SNB-78 CNS) was over 100 µM and the TGI (SW-620 colon) was over 100 µM.

`Cc1ccc(S(=O)(=O)NC(=O)NC23CC4CC(CC(F)(C4)C2)C3)cc1` was tested, and the TGI (A498 renal) was over 100 µM, the TGI (HT29 colon) was over 100 µM and the TGI (KM20L2 colon) was over 100 µM. The TGI (SK-MEL-2 melanoma) was over 100 µM, the TGI (SNB-78 CNS) was over 100 µM and the TGI (SW-620 colon) was over 100 µM.

`CN1NC2(CCCCC2)ON=C1c1ccccc1` gave a TGI (A498 renal) of over 100 µM, a TGI (HCT-15 colon) of over 100 µM and a TGI (HT29 colon) of over 100 µM. It also gave a TGI (KM20L2 colon) of over 100 µM, a TGI (NCI-H226 lung) of over 100 µM and a TGI (SF-295 CNS) of over 100 µM. The TGI (SN12C renal) was over 100 µM, the TGI (SNB-78 CNS) was over 100 µM and the TGI (SW-620 colon) was over 100 µM.

`CC(=O)O[C@H]1CC[C@@]2(C)C(=CC[C@H]3C4=CC=C(C(C)=O)[C@@]4(C)CCC32)C1` (some centres undefined) gave a TGI (A498 renal) of over 100 µM, a TGI (HCT-15 colon) of over 100 µM and a TGI (HT29 colon) of over 100 µM. For the same molecule, the TGI (KM20L2 colon) was over 100 µM, the TGI (NCI-H226 lung) was 71.4 µM and the TGI (SF-295 CNS) was over 100 µM. The TGI (SN12C renal) was over 100 µM, the TGI (SNB-78 CNS) was over 100 µM and the TGI (SW-620 colon) was 52.7 µM.

With `Nc1ccc(S(=O)(=O)C23CC4CC(CC(C4)C2)C3)cc1` the TGI (A498 renal) was over 100 µM, the TGI (HCT-15 colon) was over 100 µM and the TGI (HT29 colon) was over 100 µM. The TGI (NCI-H226 lung) was over 100 µM, the TGI (SF-295 CNS) was over 100 µM and the TGI (SK-MEL-2 melanoma) was over 100 µM. The TGI (SN12C renal) was over 100 µM and the TGI (SW-620 colon) was over 100 µM.

Work on `O=[N+]([O-])c1ccc(N/N=C/c2c(O)ccc3ccccc23)nc1` yielded a GI50 (A498 renal) of over 100 µM, a TGI (A498 renal) of over 100 µM and a GI50 (HCT-15 colon) of 0.655 µM. It also gave a TGI (HCT-15 colon) of over 100 µM, a GI50 (HT29 colon) of over 100 µM and a TGI (HT29 colon) of over 100 µM. It also gave a GI50 (NCI-H226 lung) of 93.8 µM, a TGI (NCI-H226 lung) of over 100 µM and a GI50 (SF-295 CNS) of 4.9 µM. For the same molecule, the TGI (SF-295 CNS) was over 100 µM, the GI50 (SK-MEL-2 melanoma) was over 100 µM and the TGI (SK-MEL-2 melanoma) was over 100 µM. It also gave a GI50 (SN12C renal) of 48.5 µM, a TGI (SN12C renal) of over 100 µM and a GI50 (SW-620 colon) of 3.61 µM. It also gave a TGI (SW-620 colon) of over 100 µM.

Work on `COc1ccc(/C=C/c2nc(NCCCN(C)C)c3ccccc3n2)cc1` yielded a GI50 (A498 renal) of 14 µM, a TGI (A498 renal) of 27.7 µM and a GI50 (HCT-15 colon) of 16.3 µM. The TGI (HCT-15 colon) was 30.8 µM, the GI50 (HT29 colon) was 1.61 µM and the TGI (HT29 colon) was 3.13 µM. It also gave a GI50 (NCI-H226 lung) of 12 µM, a TGI (NCI-H226 lung) of 30.7 µM and a GI50 (SF-295 CNS) of 5.15 µM. It also gave a TGI (SF-295 CNS) of 11 µM, a GI50 (SK-MEL-2 melanoma) of 1.88 µM and a TGI (SK-MEL-2 melanoma) of 3.52 µM. The GI50 (SN12C renal) was 11.8 µM, the TGI (SN12C renal) was 29.3 µM and the GI50 (SW-620 colon) was 1.67 µM. It also gave a TGI (SW-620 colon) of 3.49 µM.

`CCOc1cc2c(NCCCN(CCO)CCO)ncnc2c(OCC)c1OCC` gave a TGI (A498 renal) of over 100 µM, a TGI (HCT-15 colon) of over 100 µM and a TGI (HT29 colon) of over 100 µM. It also gave a TGI (NCI-H226 lung) of over 100 µM, a TGI (SF-295 CNS) of over 100 µM and a TGI (SK-MEL-2 melanoma) of over 100 µM. It also gave a TGI (SN12C renal) of over 100 µM and a TGI (SW-620 colon) of over 100 µM.

`COc1cc(/C=C2\CC3C4CC=C5C[C@@H](OC(C)=O)CC[C@]5(C)C4CC[C@]3(C)C2=O)ccc1OCCCn1ccnc1` (some centres undefined) gave a GI50 (A498 renal) of 9.31 µM, a TGI (A498 renal) of 21.6 µM and a GI50 (HCT-15 colon) of 9.52 µM. The TGI (HCT-15 colon) was 20.4 µM, the GI50 (HT29 colon) was 16 µM and the TGI (HT29 colon) was over 50 µM. It also gave a GI50 (NCI-H226 lung) of 8.26 µM, a TGI (NCI-H226 lung) of 17.8 µM and a GI50 (SF-295 CNS) of 9.22 µM. It also gave a TGI (SF-295 CNS) of 22.3 µM, a GI50 (SK-MEL-2 melanoma) of 16.8 µM and a TGI (SK-MEL-2 melanoma) of over 50 µM. For the same molecule, the GI50 (SN12C renal) was 8.99 µM, the TGI (SN12C renal) was 16.6 µM and the GI50 (SW-620 colon) was 10.1 µM. It also gave a TGI (SW-620 colon) of 23.3 µM.

Work on `C[C@]1(CO)[C@H]2CC[C@@]34C=C[C@@](CO)(CC[C@H]3[C@]2(C)CC[C@H]1O)C4` yielded a TGI (A498 renal) of over 100 µM, a TGI (HCT-15 colon) of over 100 µM and a TGI (HT29 colon) of over 100 µM. For the same molecule, the TGI (NCI-H226 lung) was over 100 µM, the TGI (SF-295 CNS) was over 100 µM and the TGI (SK-MEL-2 melanoma) was over 100 µM. The TGI (SN12C renal) was over 100 µM and the TGI (SW-620 colon) was over 100 µM.

For `COC1OC(CO)C(O)C(O)C1Br` (centres undefined), the TGI (A498 renal) was over 100 µM, the TGI (HCT-15 colon) was over 100 µM and the TGI (HT29 colon) was over 100 µM. The TGI (KM20L2 colon) was over 100 µM, the TGI (SF-295 CNS) was over 100 µM and the TGI (SN12C renal) was over 100 µM. It also gave a TGI (SNB-78 CNS) of over 100 µM and a TGI (SW-620 colon) of over 100 µM.

Molecule `O=c1[nH]c(=O)n(C2OC(CO)C(O)C2O)c2c1CCCC2` (centres undefined) has a TGI (A498 renal) of over 100 µM, a TGI (HCT-15 colon) of over 100 µM and a TGI (HT29 colon) of over 100 µM. The TGI (NCI-H226 lung) was over 100 µM, the TGI (SF-295 CNS) was over 100 µM and the TGI (SK-MEL-2 melanoma) was over 100 µM. For the same molecule, the TGI (SN12C renal) was over 100 µM and the TGI (SW-620 colon) was over 100 µM.
